Test systems include SW-620; COLO 205; Hs-578T; SK-OV-3; SN12C; A549; SF-539; T47D; RXF 393; NCI-H226; MCF7; NCI-H460; HCC 2998; PC-3; EKVX; HOP-62; IGROV-1; RPMI-8226; CCRF-CEM; ACHN.
Experiment in all cases: growth of human tumour cells (NCI), 48 h

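How tested: cells in 96-well plates exposed to compound for 48 hours at five concentrations. GI50 is the concentration that inhibits growth by half.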 Calls of active or inactive are those of the source. Cut-off read from the data, not from the text of the source: active = GI50 up to about 1.1 µM and inactive = higher.

Turning to `CC1(C)C(CBr)=[N+]([O-])C(C)(C)N1O`, the GI50 was 2.25 µM (inactive) with SW-620; 1.83 µM (inactive) with COLO 205; > 10 µM (inactive) in the experiment with Hs-578T; > 10 µM (inactive) in the experiment with SK-OV-3; 4.04 µM (inactive) in the experiment with SN12C; > 10 µM (inactive) with A549. Further, the GI50 was > 5.38 µM (inactive) in the experiment on SF-539; 2.16 µM (inactive) in the experiment with T47D; 3.31 µM (inactive) in the experiment with RXF 393; > 10 µM (inactive) with NCI-H226; 4.91 µM (inactive) with MCF7; > 10 µM (inactive) with NCI-H460. Further, the GI50 was > 10 µM (inactive) in the experiment with HCC 2998; > 10 µM (inactive) in the experiment on PC-3; > 5.6 µM (inactive) in the experiment on EKVX; > 10 µM (inactive) in the experiment with HOP-62; > 6.31 µM (inactive) with IGROV-1; > 5.05 µM (inactive) with RPMI-8226. The GI50 in the experiment on CCRF-CEM was 604 nM (active); in the experiment on ACHN it was 3.68 µM (inactive).

These data come from ChEMBL document CHEMBL1201862, “PubChem BioAssay data set” (2004).
